A short description of series [1]: Aqueous solubility, shake-flask method. It counts as physicochemical. The following applies: aqueous buffer, thermodynamic from solid. On the procedure: Aqueous solubility data were generated via a “shake-flask” method where an excess of compound was added to a buffer (typically phosphate buffered saline at pH 7.4) and shaken for a period of 18 hours at room temperature. After this time any excess solid was removed by double centrifugation to obtain a saturated aqueous solution. The amount of compound solubilised was quantified by HPLC-UV or LC-MS against a standard calibration curve.
The solubility data generated are set out below. Where a greater than figure is quoted, all available compound was solubilised and saturation was not achieved in the conditions employed.

Series [2] concerns the target T1, Nav1.7 (or SCN9A) channel (Homo sapiens, UniProt Q15858).
T1 construct: expressed in transfected cells
In words: Nav1.7 (hSCN9A) channel block, PatchXpress (PX) whole-cell electrophysiology in stably transfected HEK cells. It counts as cell-based. The note with it: for IC50: estimated IC50 from single point electrophysiology data, PatchXpress platform, HEK cells expressing hSCN9A, clamped at V1/2 of inactivation, read-out: Nav1.7 EIC50. On the procedure:
The ability of the compounds of formula (I) to block the Nav1.7 (or SCN9A) channel was measured using the assay described below.
Human Embryonic Kidney (HEK) cells were transfected with an hSCN9A construct using lipofectamine reagent (Invitrogen), using standard techniques. Cells stably expressing the hSCN9A constructs were identified by their resistance to G-418 (400 μg/ml). Clones were screened for expression using the whole-cell voltage-clamp technique.
HEK cells stably transfected with hSCN9A were maintained in DMEM medium supplemented with 10% heat-inactivated fetal bovine serum and 400 μg/ml G-418 in an incubator at 37° C. with a humidified atmosphere of 10% CO2. For HTS, cells were harvested from flasks by trypsinization and replated in an appropriate multi-well plate (typically 96 or 384 wells/plate) such that confluence would be achieved within 24 hours of plating. Cells were typically used for electrophysiological experiments within 24 to 72 hours after plating.
For conventional whole-cell voltage clamp experiments cells were removed from the culture flask by brief trypsinization and re-plated at low density onto glass cover slips. Cover slips containing HEK cells expressing hSCN9A were placed in a bath on the stage of an inverted microscope and perfused (approximately 1 ml/minutes) with extracellular solution of the following composition: 138 mM NaCl, 2 mM CaCl2, 5.4 mM KCl, 1 mM MgCl2, 10 mM glucose, and 10 mM HEPES, pH 7.4, with NaOH. […] The osmolarity of the extracellular and intracellular solutions was 300 mOsm/kg and 295 mOsm/kg, respectively. All recordings were made at room temperature (22-24° C.) using AXOPATCH 200B amplifiers and PCLAMP software (Axon Instruments, Burlingame, Calif.). hSCN9A currents in HEK cells were measured using the whole-cell configuration of the patch-clamp technique (Hamill et al., 1981). Uncompensated series resistance was typically 2 to 5 mega ohms and >85% series resistance compensation was routinely achieved. […] Current records were acquired at 20 to 50 KHz and filtered at 5 to 10 KHz.
HEK cells stably transfected with hSCN9A were viewed under Hoffman contrast optics and placed in front of an array of flow pipes emitting either control or compound-containing extracellular solutions.
The voltage-dependence of inactivation was determined by applying a series of depolarizing prepulses (8 sec long in 10 mV increments) from a negative holding potential. The voltage was then immediately stepped to 0 mV to assess the magnitude of the sodium current. Currents elicited at 0 mV were plotted as a function of prepulse potential to allow estimation of the voltage at which 50% of the channels were inactivated (midpoint of inactivation or V1/2). Compounds were tested for their ability to inhibit hSCN9A sodium channels by activating the channel with a 20 msec voltage step […] to 0 mV following an 8 second conditioning prepulse to the empirically determined V1/2. Compound effect (% inhibition) was determined by difference in current amplitude before and after application of test compounds. For ease of comparison, “estimated IC-50” (EIC50) values were calculated from single point electrophysiology data by the following equation, (tested concentration, nM)×(100-% inhibition/% inhibition). Inhibition values <20% and >80% were excluded from the calculation.
Electrophysiological assays were conducted with PatchXpress 7000 hardware and associated software (Molecular Devices Corp). All assay buffers and solutions were identical to those used in conventional whole-cell voltage clamp experiments described above. hSCN9A cells were grown as above to 50%-80% confluency and harvested by trypsinization. Trypsinized cells were washed and resuspended in extracellular buffer at a concentration of 1×10^6 cells/ml. The onboard liquid handling facility of the PatchXpress was used for dispensing cells and application of test compounds.

[3] abbreviates: pH 7.5, shaken 18 hours at room temperature.

This passage reports solubility, IC50 and inhibition results from US20170275275A1, “BENZENESULFONAMIDES USEFUL AS SODIUM CHANNEL INHIBITORS” (PFIZER INC., priority 2014, published 2017).

By solubility is commonly meant the dissolved amount per volume that the medium holds. Lower therefore signals little dissolved substance. Usually inhibition stands for the relative decrease from the control value, in per cent.

Structures are written as SMILES. Values after ≈ are worked out from the molar mass of the structure shown. Where a name gives a salt, the structure may show the parent alone.

T1 sequence (Q15858 whole entry): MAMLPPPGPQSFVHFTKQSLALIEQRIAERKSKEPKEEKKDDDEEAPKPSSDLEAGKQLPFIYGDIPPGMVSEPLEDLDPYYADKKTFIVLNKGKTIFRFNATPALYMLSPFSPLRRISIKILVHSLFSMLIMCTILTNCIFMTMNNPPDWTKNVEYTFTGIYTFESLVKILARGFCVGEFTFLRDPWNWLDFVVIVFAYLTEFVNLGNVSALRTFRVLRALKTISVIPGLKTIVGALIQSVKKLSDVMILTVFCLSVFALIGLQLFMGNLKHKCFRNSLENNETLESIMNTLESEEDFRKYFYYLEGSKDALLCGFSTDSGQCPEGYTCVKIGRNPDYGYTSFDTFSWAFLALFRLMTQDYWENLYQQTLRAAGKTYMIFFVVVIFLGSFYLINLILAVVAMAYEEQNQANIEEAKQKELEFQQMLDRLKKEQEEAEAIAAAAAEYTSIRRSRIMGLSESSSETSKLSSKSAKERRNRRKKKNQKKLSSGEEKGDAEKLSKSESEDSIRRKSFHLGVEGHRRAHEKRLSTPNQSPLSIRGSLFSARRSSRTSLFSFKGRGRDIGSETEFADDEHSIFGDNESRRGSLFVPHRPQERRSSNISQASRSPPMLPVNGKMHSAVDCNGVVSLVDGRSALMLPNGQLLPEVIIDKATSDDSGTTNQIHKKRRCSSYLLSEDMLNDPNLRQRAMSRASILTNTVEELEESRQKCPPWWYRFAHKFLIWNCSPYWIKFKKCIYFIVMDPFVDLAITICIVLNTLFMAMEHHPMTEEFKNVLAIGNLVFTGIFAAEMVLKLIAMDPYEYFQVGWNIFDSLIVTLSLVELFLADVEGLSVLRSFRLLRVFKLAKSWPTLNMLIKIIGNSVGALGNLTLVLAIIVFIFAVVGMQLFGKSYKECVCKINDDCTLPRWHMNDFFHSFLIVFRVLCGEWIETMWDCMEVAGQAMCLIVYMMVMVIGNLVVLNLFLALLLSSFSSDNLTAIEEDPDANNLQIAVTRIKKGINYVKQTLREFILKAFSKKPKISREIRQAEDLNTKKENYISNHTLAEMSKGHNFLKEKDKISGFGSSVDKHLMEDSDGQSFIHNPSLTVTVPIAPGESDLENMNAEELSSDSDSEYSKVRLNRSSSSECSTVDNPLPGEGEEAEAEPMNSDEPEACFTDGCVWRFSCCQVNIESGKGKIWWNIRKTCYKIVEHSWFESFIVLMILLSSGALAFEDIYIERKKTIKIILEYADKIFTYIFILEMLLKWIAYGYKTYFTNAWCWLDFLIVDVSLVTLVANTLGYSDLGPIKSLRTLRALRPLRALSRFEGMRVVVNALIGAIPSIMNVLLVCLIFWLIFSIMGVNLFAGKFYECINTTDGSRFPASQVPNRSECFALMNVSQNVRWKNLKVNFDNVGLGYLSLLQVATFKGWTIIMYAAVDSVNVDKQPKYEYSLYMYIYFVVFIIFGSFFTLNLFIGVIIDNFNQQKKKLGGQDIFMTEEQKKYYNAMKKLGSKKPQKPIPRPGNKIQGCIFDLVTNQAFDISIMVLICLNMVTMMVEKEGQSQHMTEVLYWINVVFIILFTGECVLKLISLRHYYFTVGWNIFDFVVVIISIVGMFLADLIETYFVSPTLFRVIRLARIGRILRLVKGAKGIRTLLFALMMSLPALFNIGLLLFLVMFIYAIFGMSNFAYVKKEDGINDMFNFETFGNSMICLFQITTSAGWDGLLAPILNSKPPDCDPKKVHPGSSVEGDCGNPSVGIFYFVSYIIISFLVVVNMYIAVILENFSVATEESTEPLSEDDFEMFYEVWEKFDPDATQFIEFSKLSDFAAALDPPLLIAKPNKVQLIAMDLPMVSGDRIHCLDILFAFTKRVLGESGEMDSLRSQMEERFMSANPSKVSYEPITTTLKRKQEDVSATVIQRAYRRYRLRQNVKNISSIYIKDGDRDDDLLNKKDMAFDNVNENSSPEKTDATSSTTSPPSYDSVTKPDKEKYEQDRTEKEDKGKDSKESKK

`COCCOCCOCCOCCO[C@@H]1CCN(Cc2cc(-c3cc(-c4cccc(C(F)(F)F)c4)ccc3Oc3ccc(S(=O)(=O)Nc4ncns4)cc3C#N)ccn2)C1` [Example 21, (R)-4-((3-(2-((3-((2,5,8,11-tetraoxatridecan-13-yl)oxy)pyrrolidin-1-yl)methyl)pyridin-4-yl)-3′-(trifluoromethyl)-[1,1′-biphenyl]-4-yl)oxy)-3-cyano-N-(1,2,4-thiadiazol-5-yl)benzenesulfonamide trifluoroacetate salt] registered a solubility at 18 h in series [1] (setting [3]) of 56 µg/mL. For the same molecule, in series [2], the IC50 is 7.9 nM.
In series [1] (pH 7.2, shaken 18 hours at room temperature), `NCc1cc(-c2cc(-c3cccc(C(F)(F)F)c3)ccc2Oc2cc(F)c(S(=O)(=O)Nc3nncs3)cc2Cl)ccn1` [Example 7, 4-({3-[2-(Aminomethyl)pyridin-4-yl]-3′-(trifluoromethyl)biphenyl-4-yl}oxy)-5-chloro-2-fluoro-N-1,3,4-thiadiazol-2-ylbenzenesulfonamide bis-formate salt] gave a solubility at 18 h of 0.5 µg/mL. Further, the IC50 in series [2] is 1.5 nM.
For the molecule `NCc1cc(-c2cc(-c3cccc(C(F)(F)F)c3)ccc2Oc2cc(F)c(S(=O)(=O)Nc3cscn3)cc2Cl)ccn1` [Example 29, 4-({3-[2-(aminomethyl)pyridin-4-yl]-3′-(trifluoromethyl)biphenyl-4-yl}oxy)-5-chloro-2-fluoro-N-(1,3-thiazol-4-yl)benzenesulfonamide dihydrochloride salt], the solubility at 18 h in series [1] (pH 7.0, shaken 18 hours at room temperature) is less than 0.5 µg/mL. Also, the IC50 in series [2] is 2.9 nM.
`COCCOCCOCCOCCOCCOCCOCCOCCOCCOCCOCCOCCC(=O)NCc1cc(-c2cc(-c3cccc(C(F)(F)F)c3)ccc2Oc2ccc(S(=O)(=O)Nc3ncns3)cc2C#N)ccn1` [Example 19, N-((4-(4-(4-(N-(1,2,4-thiadiazol-5-yl)sulfamoyl)-2-cyanophenoxy)-3′-(trifluoromethyl)-[1,1′-biphenyl]-3-yl)pyridin-2-yl)methyl)-2,5,8,11,14,17,20,23,26,29,32,35-dodecaoxaoctatriacontan-38-amide] returned a solubility at 18 h in series [1] (setting [3]) greater than 3 µg/mL. For the same molecule, the IC50 in series [2] is 17.5 nM.
`COCCOCCOCCOCCOCCOCCOCCOCCOCCOCCOCCOCCC(=O)N1CCC(CCNCc2cc(-c3cc(-c4cccc(C(F)(F)F)c4)ccc3Oc3ccc(S(=O)(=O)Nc4ncns4)cc3C#N)ccn2)CC1` [Example 17, 4-((3-(2-(((2-(1-(2,5,8,11,14,17,20,23,26,29,32,35-dodecaoxaoctatriacontan-38-oyl)piperidin-4-yl)ethyl)amino)methyl)pyridin-4-yl)-3′-(trifluoromethyl)-[1,1′-biphenyl]-4-yl)oxy)-3-cyano-N-(1,2,4-thiadiazol-5-yl)benzenesulfonamide]: the solubility at 18 h in series [1] (pH 7.4, shaken 18 hours at room temperature) is greater than 2300 µg/mL. Besides, the inhibition at 0.01 µM in series [2] (HEK293, Nav1.7, PatchXpress, 10 nM, read-out: % inhibition at 10 nM dose) was found to be 87.4%. The IC50 in series [2] is less than 10 nM.
For `COCCOCCOCCOCCNCc1cc(-c2cc(-c3cccc(C(F)(F)F)c3)ccc2Oc2ccc(S(=O)(=O)Nc3ncns3)cc2C#N)ccn1` [Example 15, 4-((3-(2-(5,8,11,14-tetraoxa-2-azapentadecyl)pyridin-4-yl)-3′-(trifluoromethyl)-[1,1′-biphenyl]-4-yl)oxy)-3-cyano-N-(1,2,4-thiadiazol-5-yl)benzenesulfonamide], the solubility at 18 h in series [1] (setting [3]) turned out to be 110 µg/mL (≈ 138 µM). In addition, the IC50 in series [2] was 1 nM.
As for `O=S(=O)(Nc1nncs1)c1cc(Cl)c(Oc2ccc(-c3cccc(C(F)(F)F)c3)cc2-c2ccnc(CNCCC3CCNCC3)c2)cc1F` [Example 6, 5-Chloro-2-fluoro-4-{[3-(2-{[(2-piperidin-4-ylethyl)amino]methyl}pyridin-4-yl)-3′-(trifluoromethyl)biphenyl-4-yl]oxy}-N-1,3,4-thiadiazol-2-ylbenzenesulfonamide bis-formate salt], the solubility at 18 h in series [1] (pH 5.0, shaken 18 hours at room temperature) was greater than 2300 µg/mL; in series [1] (setting [3]), less than 500 µg/mL. The IC50 in series [2] is 2.1 nM.
For `N#Cc1cc(S(=O)(=O)Nc2ncns2)ccc1Oc1ccc(-c2cccc(C(F)(F)F)c2)cc1-c1ccnc(CN)c1` [Example 26, 4-({3-[2-(Aminomethyl)pyridin-4-yl]-3′-(trifluoromethyl)biphenyl-4-yl}oxy)-3-cyano-N-1,2,4-thiadiazol-5-ylbenzenesulfonamide bis-formate salt], the solubility at 18 h in series [1] (setting [3]) was determined as 3 µg/mL. For the same molecule, the IC50 in series [2] is 0.5 nM.
